Source: patent publication US10919895B2, “Toll-like receptor 7 (TLR7) agonists having a pyridine or pyrazine moiety, conjugates thereof, and methods and uses therefor” (BRISTOL-MYERS SQUIBB COMPANY, priority 2017, dated 2021)

Assays:
human TLR7 = human TLR7 (Homo sapiens (Human), UniProt Q9NYK1); assay: HEK-Blue TLR7 reporter assay for TLR7 agonist activity; type: cell-based; settings: HEK-Blue TLR7 cells, SEAP reporter, 18 h treatment; read-out: TLR7 Agonism (EC50)
Procedure: This example describes a method for assaying TLR7 agonist activity of the compounds disclosed in this specification.
HEK-Blue™ TLR7 cells were added to each well of a 384-well tissue-culture plate (15,000 cells per well) and incubated 16-18 h at 37° C., 5% CO2. Compounds (100 nl) were dispensed into wells containing the HEK-Blue™ TLR cells and the treated cells were incubated at 37° C., 5% CO2. After 18 h treatment ten microliters of freshly-prepared Quanti-Blue™ reagent (Invivogen) was added to each well, incubated for 30 min (37° C., 5% CO2) and SEAP levels measured using an Envision plate reader (OD=620 nm).

interleukin 6 (IL-6) = assay: IL-6 induction in human whole blood (AlphaLISA); type: cell-based; settings: 37° C., 20 h
Procedure: This example describes a method for assaying interleukin 6 induction by compounds disclosed in this specification.
Compounds diluted in DMSO were transferred to individual wells of a Matrix Technologies clear, V-bottom 384-well plate using ECHO acoustic liquid handling technology (25 nL per well). Human whole-blood samples (25 uL) were added to each well using a CyBio FeliX liquid handling instrument. The plate was shaken on a plate shaker for three min before incubating the reaction mixtures at 37° C. for 20 h. Basel RPMI 1640 medium (supplemented with L-glutamine) was then added to each well (25 uL per well) prior to liberating plasma from each sample by centrifugation (450×g, 5 min, ambient temperature). Treated plasma samples (3 uL) were subsequently transferred to individual wells of a white, shallow, 384-well ProxiPlate (Perkin Elmer) using the FeliX liquid handling instrument and their interleukin 6 levels were measured using AlphaLISA technology as described by the manufacturer, PerkinElmer. Data analyses software was used to determine compound EC50 values where the baseline was established using average DMSO values and 100% induction established using reference compound values at the highest concentration tested. EC50's can be determined with software such as Graphpad Prism™.

IFN-α = settings: fold lower potency vs corresponding purine-8-one compound; cited from earlier work

human TLR7, sequence (Q9NYK1 27-1049): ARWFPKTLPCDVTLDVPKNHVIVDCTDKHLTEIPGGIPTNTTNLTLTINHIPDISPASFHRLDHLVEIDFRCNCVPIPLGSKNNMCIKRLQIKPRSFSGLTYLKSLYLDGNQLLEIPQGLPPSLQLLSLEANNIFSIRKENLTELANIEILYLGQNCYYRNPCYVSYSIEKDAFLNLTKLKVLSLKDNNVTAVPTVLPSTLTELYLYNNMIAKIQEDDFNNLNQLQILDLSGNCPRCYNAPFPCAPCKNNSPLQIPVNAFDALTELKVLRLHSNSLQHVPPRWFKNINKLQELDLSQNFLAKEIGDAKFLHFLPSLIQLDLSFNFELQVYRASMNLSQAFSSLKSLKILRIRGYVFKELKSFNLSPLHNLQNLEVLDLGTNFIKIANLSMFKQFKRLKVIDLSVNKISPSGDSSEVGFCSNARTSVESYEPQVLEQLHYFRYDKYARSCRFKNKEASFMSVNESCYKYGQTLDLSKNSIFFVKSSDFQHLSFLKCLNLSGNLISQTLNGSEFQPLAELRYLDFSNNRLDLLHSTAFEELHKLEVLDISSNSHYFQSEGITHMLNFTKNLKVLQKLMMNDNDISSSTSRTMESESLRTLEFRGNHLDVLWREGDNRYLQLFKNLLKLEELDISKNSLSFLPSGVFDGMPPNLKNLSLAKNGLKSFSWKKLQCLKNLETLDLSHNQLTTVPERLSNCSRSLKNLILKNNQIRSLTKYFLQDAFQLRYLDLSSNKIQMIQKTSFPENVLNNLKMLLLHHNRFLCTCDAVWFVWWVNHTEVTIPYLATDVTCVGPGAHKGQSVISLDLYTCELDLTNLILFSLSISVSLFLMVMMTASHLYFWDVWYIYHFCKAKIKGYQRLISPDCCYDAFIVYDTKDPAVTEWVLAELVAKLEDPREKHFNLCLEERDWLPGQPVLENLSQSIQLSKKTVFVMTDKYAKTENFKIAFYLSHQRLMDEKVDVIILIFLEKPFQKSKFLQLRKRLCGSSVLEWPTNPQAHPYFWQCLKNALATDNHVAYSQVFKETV

Structure (SMILES)	EC50 (human TLR7) [nM]	EC50 (interleukin 6 (IL-6)) [nM]	potency less than that of the corresponding purine-8-one compound, as measured by IFN-α induction (IFN-α) [×]
CCCCOc1nc(N)c2nc(O)n(Cc3cnc(CO)cn3)c2n1 [Compound 6]	288	–	–
CCCCOc1nc(N)c2nc(O)n(Cc3ccccc3)c2n1 [Compound B, reference compound]	470	–	–
CCCCOc1nc(N)c2nc(O)n(Cc3cnc(CNCc4ccncc4)cn3)c2n1 [Ia-01]	330	1000	–
CCCCOc1nc(N)c2nc(O)n(Cc3cnc(CNCC4COC4)cn3)c2n1 [Ia-02]	11200	–	–
CCCCOc1nc(N)c2nc(O)n(Cc3cnc(CNCc4ccccc4)cn3)c2n1 [Ia-03]	180	1000	–
CCCCOc1nc(N)c2nc(O)n(Cc3cnc(CNCCOC)cn3)c2n1 [Ia-04]	310	600	–
CCCCOc1nc(N)c2nc(O)n(Cc3cnc(CNC4CC4)cn3)c2n1 [Ia-05]	140	360	–
CCCCOc1nc(N)c2nc(O)n(Cc3cnc(CNC(C)C)cn3)c2n1 [Ia-06]	83	210	–
CCCCOc1nc(N)c2nc(O)n(Cc3cnc(CNC4COC4)cn3)c2n1 [Ia-07]	490	1000	–
CCCCOc1nc(N)c2nc(O)n(Cc3cnc(CNC4CCC4)cn3)c2n1 [Ia-08]	24	220	–
CCCCNCc1cnc(Cn2c(O)nc3c(N)nc(OCCCC)nc32)cn1 [Ia-09]	89	420	–
CCCCOc1nc(N)c2nc(O)n(Cc3cnc(CNC)cn3)c2n1 [Ia-10]	290	570	–
CCCCNCc1ccc(Cn2c(O)nc3c(N)nc(OCCCC)nc32)nc1 [Ib-01]	15	77	–
CCCCOc1nc(N)c2nc(O)n(Cc3ccc(CNCCOC)cn3)c2n1 [Ib-02]	28	110	–
CCCCOc1nc(N)c2nc(O)n(Cc3ccc(CNC4CC4)cn3)c2n1 [Ib-03]	18	62	–
CCCCOc1nc(N)c2nc(O)n(Cc3ccc(CNC4CCC4)cn3)c2n1 [Ib-04]	12	78	–
CCCCOc1nc(N)c2nc(O)n(Cc3ccc(CNCCCN)cn3)c2n1 [Ib-05]	62	260	–

Structure (SMILES)	EC50 (human TLR7) [nM]	EC50 (interleukin 6 (IL-6)) [nM]	potency less than that of the corresponding purine-8-one compound, as measured by IFN-α induction (IFN-α) [×]
CCCCOc1nc(N)c2nc(O)n(Cc3ccc(CNCc4ccccc4)cn3)c2n1 [Ib-06]	–	190	–
CCCCOc1nc(N)c2nc(O)n(Cc3ccc(CNCc4ccc(N)cc4)cn3)c2n1 [Ib-07]	41	100	–
CCCCOc1nc(N)c2nc(O)n(Cc3ccc(CNCCCOCCOCCOCCCNC(=O)OC(C)(C)C)cn3)c2n1 [Ib-08]	47	330	–
CCCCNCc1ccc(Cn2c(O)nc3c(N)nc(OCCCC)nc32)cn1 [Ic-01]	4.8	26	–
CCCCOc1nc(N)c2nc(O)n(Cc3ccc(CNCCOC)nc3)c2n1 [Ic-02]	9	–	–
CCCCOc1nc(N)c2nc(O)n(Cc3ccc(CNC4CC4)nc3)c2n1 [Ic-03]	5.3	14	–
CCCCOc1nc(N)c2nc(O)n(Cc3ccc(CNCCCN)nc3)c2n1 [Ic-05]	14	28	–
CCCCOc1nc(N)c2nc(O)n(Cc3ccc(CNCc4ccccc4)nc3)c2n1 [Ic-06]	–	180	–
CCCCOc1nc(N)c2nc(O)n(Cc3ccc(CNCc4ccc(N)cc4)nc3)c2n1 [Ic-07]	11	20	–
CCCCOc1nc(N)c2nc(O)n(Cc3ccc(CNCCCOCCOCCOCCCNC(=O)OC(C)(C)C)nc3)c2n1 [Ic-08]	23	150	–
CCCCCCNCc1ccc(Cn2c(O)nc3c(N)nc(OCCCC)nc32)cn1 [Ic-09]	–	37	–
CCCCOc1nc(N)c2nc(O)n(Cc3ccc(CNCCC)nc3)c2n1 [Ic-10]	6.1	27	–
CCCCOc1nc(N)c2nc(O)n(Cc3ccc(CNC4CCCC4)nc3)c2n1 [Ic-11]	–	23	–
CCCCOc1nc(N)c2nc(O)n(Cc3ccc(CN4CCC(N)CC4)nc3)c2n1 [Ic-12]	–	13	–
CCCCOc1nc(N)c2nc(O)n(Cc3ccc(CN4CCC(CN)CC4)nc3)c2n1 [Ic-13]	–	11	–
CCCCOc1nc(N)c2c(n1)N(Cc1cccc(CN3CCCC3)c1)CC(=O)N2 [Vesatolimod, vesatolimod]	–	–	100
